Where two headings read alike, the source gives them in different places.
Columns and labels:
[1] = tested on: mu opiate receptor (MOR); test: MOR agonist activity using [35S]GTPγS binding assay in striatal membranes; assay type: biochemical; conditions: for MOR agonist activity ([35S]GTPγS binding), FLNA-Binding Compound as Agonist 1 μM + BFNA: 1 μM compound + 1 μM β-funaltrexamine
Description: To assess the mu opiate receptor (MOR) agonist activity of positive compounds from the FLNA screening, compounds were tested in a [^35S]GTPγS binding assay using striatal membranes. […] This assay measures a functional consequence of receptor occupancy at one of the earliest receptor-mediated events. The assay permits traditional pharmacological parameters of potency, efficacy and antagonist affinity, with the advantage that agonist measures are not subjected to amplification or other modulation that may occur when analyzing parameters further downstream of the receptor.
Thus, striatal tissue was homogenized in 10 volumes of ice cold 25 mM HEPES buffer, pH 7.4, which contained 1 mM EGTA, 100 mM sucrose, 50 μg/ml leupeptin, 0.04 mM PMSF, 2 μg/ml soybean trypsin inhibitor and 0.2% 2-mercaptoethanol. The homogenates were centrifuged at 800×g for 5 minutes and the supernatants were centrifuged at 49,000×g for 20 minutes. The resulting pellets were suspended in 10 volume of reaction buffer, which contained 25 mM HEPES, pH 7.5, 100 mM NaCl, 50 μg/ml leupeptin, 2 μg/ml soybean trypsin inhibitor, 0.04 mM PMSF and 0.02% […].
The resultant striatal membrane preparation (200 μg) was admixed and maintained (incubated) at 30° C. for 5 minutes in reaction buffer as above that additionally contained 1 mM MgCl2 and 0.5 nM [^35S]GTPγS (0.1 μCi/assay, PerkinElmer Life and Analytical Sciences) in a total volume of 250 μl and continued for 5 minutes in the absence or presence of 0.1-10 μM of an assayed compound of interest. The reaction was terminated by dilution with 750 μl of ice-cold reaction buffer that contained 20 mM MgCl2 and 1 mM EGTA and immediate centrifugation at 16,000×g for 5 minutes.
The resulting pellet was solubilized by sonicating for 10 seconds in 0.5 ml of immunoprecipitation buffer containing 0.5% digitonin, 0.2% sodium cholate and 0.5% NP-40. Normal rabbit serum (1 μl) was added to 1 ml of lysate and incubated at 25° C. for 30 minutes. Nonspecific immune complexes were removed by incubation with 25 μl of protein A/G-conjugated agarose beads at 25° C. for 30 minutes followed by centrifugation at 5,000×g at 4° C. for 5 minutes. The supernatant was divided and separately incubated at 25° C. for 30 minutes with antibodies raised against Gαo proteins (1:1,000 dilutions).
The immunocomplexes so formed were collected by incubation at 25° C. for 30 minutes with 40 μl of agarose-conjugated protein A/G beads and centrifugation at 5,000×g at 4° C. for 5 minutes. The pellet was washed and suspended in buffer containing 50 mM Tris-HCl, pH 8.0, and 1% NP-40. The radioactivity in the suspension was determined by liquid scintillation spectrometry.

[2] = molecular target: FLNA pentapeptide of SEQ ID NO: 1 (Bn-VAKGL) (Homo sapiens, UniProt P21333); test: FITC-NLX-based FLNA screening assay (inhibition of FITC-naloxone binding to Bn-VAKGL on streptavidin plates); conditions: for inhibition at 0.01 µM / inhibition at 0.1 µM / inhibition at 1 µM / Percent Binding Inhibition: 10 nM FITC-NLX
[3] = Series C-1, 0.1 μM compound, relative to DAMGO
[4] = Series C-1, 0.1 μM compound, [35S]GTPγS binding to Gαo, striatal membranes
[5] = Series C-1, 1 μM compound + 1 μM β-FNA
[6] = Series C-1, 1 μM compound + β-FNA, relative to DAMGO + BFNA
[7] = Series C-1, 1 μM compound, relative to DAMGO
[8] = Series C-1, 1 μM compound, [35S]GTPγS binding to Gαo, striatal membranes
[9] = read-out: Percent Binding Inhibition, FLNA-binding compound 0.01 μM
[10] = read-out: Percent Binding Inhibition, FLNA-binding compound 0.1 μM
[11] = read-out: Percent Binding Inhibition, FLNA-binding compound 1 μM
[12] = Series C-2, 0.1 μM compound, relative to DAMGO
[13] = Series C-2, 0.1 μM compound, [35S]GTPγS binding to Gαo, striatal membranes
[14] = Series C-2, 1 μM compound + 1 μM β-FNA
[15] = Series C-2, 1 μM compound + β-FNA, relative to DAMGO + BFNA
[16] = Series C-2, 1 μM compound, relative to DAMGO
[17] = Series C-2, 1 μM compound, [35S]GTPγS binding to Gαo, striatal membranes
[18] = FLNA-binding compound 0.01 μM, read-out: Percent Binding Inhibition
[19] = FLNA-binding compound 0.1 μM, read-out: Percent Binding Inhibition
[20] = FLNA-binding compound 1 μM, read-out: Percent Binding Inhibition
[21] = 0.1 μM compound relative to DAMGO
[22] = 1 μM compound + BFNA relative to DAMGO + BFNA
[23] = 1 μM compound relative to DAMGO
[24] = Series B, 0.1 μM compound, relative to DAMGO
[25] = Series B, 0.1 μM compound, [35S]GTPγS binding to Gαo, striatal membranes
[26] = Series B, 1 μM compound + 1 μM β-FNA
[27] = Series B, 1 μM compound + β-FNA, relative to DAMGO + BFNA
[28] = Series B, 1 μM compound, relative to DAMGO
[29] = Series B, 1 μM compound, [35S]GTPγS binding to Gαo, striatal membranes

Compound | inhibition at 0.01 µM [2, 9] | inhibition at 0.1 µM [2, 10] | inhibition at 1 µM [2, 11] | inhibition at 0.01 µM [2, 18] | inhibition at 0.1 µM [2, 19] | inhibition at 1 µM [2, 20] | MOR agonist activity ([35S]GTPγS binding), FLNA-Binding Compound as Agonist 0.1 μM ([1]; 0.1 μM compound) | % DAMGO (0.1 μM) [1, 21] | MOR agonist activity ([35S]GTPγS binding), FLNA-Binding Compound as Agonist 1 μM ([1]; 1 μM compound) | MOR agonist activity ([35S]GTPγS binding), FLNA-Binding Compound as Agonist 1 μM + BFNA [1] | % DAMGO + BFNA [1, 22] | % DAMGO (1 μM) [1, 23] | also measured
O=S(=O)(c1ccc(Oc2ccccc2)cc1)N1CCC2(CC1)OCCN2S(=O)(=O)c1ccc(Oc2ccccc2)cc1 [Compound C0149M] | 48.5% | 52.3% | 62% | – | – | – | – | – | – | – | – | – | % DAMGO (0.1 μM) [1, 3]: 122.0%; Concentration of FLNA-Binding Compound as Agonist 0.1 μM [1, 4]: 209.8%; Concentration of FLNA-Binding Compound as Agonist 1 μM + BFNA [1, 5]: 93.4%; % DAMGO + BFNA [1, 6]: 102.3%; % DAMGO (1 μM) [1, 7]: 124.8%; Concentration of FLNA-Binding Compound as Agonist 1 μM [1, 8]: 406.7%
CCCCN1CCC2(CC1)OCCN2S(=O)(=O)c1ccc(C(C)=O)cc1 [Compound C0101M] | – | – | – | 50.5% | 56.4% | 59% | – | – | – | – | – | – | % DAMGO (0.1 μM) [1, 12]: 82.5%; MOR agonist activity, percent [35S]GTPγS binding at the stated compound concentration [1, 13]: 138.2%; MOR agonist activity, percent [35S]GTPγS binding at the stated compound concentration [1, 14]: 174.8%; % DAMGO + BFNA [1, 15]: 368.0%; % DAMGO (1 μM) [1, 16]: 123.4%; MOR agonist activity, percent [35S]GTPγS binding at the stated compound concentration [1, 17]: 274.3%
CC1CN(CC(O)COc2ccc(Cl)cc2)CC(C)O1 (stereo not shown) [Compound A0047] | – | – | – | 40.9% | 42.9% | 44.5% | 233.0% | 118.8% | 255.0% | 116.5% | 157.6% | 92.4% | –
COc1ccc(CCC(=O)CC2c3c(cc4c(c3OC)OCO4)CCN2C)cc1 (stereo not shown) [Compound B0047] | – | – | – | 30.7% | 37.6% | 47.1% | – | – | – | – | – | – | % DAMGO (0.1 μM) [1, 24]: 106.3%; MOR agonist activity, percent [35S]GTPγS binding at the stated compound concentration [1, 25]: 187.8%; MOR agonist activity, percent [35S]GTPγS binding at the stated compound concentration [1, 26]: 68.4%; % DAMGO + BFNA [1, 27]: 260.1%; % DAMGO (1 μM) [1, 28]: 92.6%; MOR agonist activity, percent [35S]GTPγS binding at the stated compound concentration [1, 29]: 235.6%
COc1ccc(OCC(O)CN2CCc3cc4c(c(OC)c3C2)OCO4)cc1 (stereo not shown) [Compound A0070] | – | – | – | – | – | – | 128.6% | 74.7% | 195.3% | 80.3% | 232.8% | 88.9% | Percent Binding Inhibition ([2]; FLNA-binding compound 0.01 μM): 32.9%; Percent Binding Inhibition ([2]; FLNA-binding compound 0.1 μM): 39.1%; Percent Binding Inhibition ([2]; FLNA-binding compound 1 μM): 41.7%
CC(O)c1ccc(S(=O)(=O)N2CCC3(CC2)OCCN3S(=O)(=O)c2ccc(C(C)O)cc2)cc1 (stereo not shown) [Compound C0051] | 27% | 30.4% | 36.4% | – | – | – | – | – | – | – | – | – | % DAMGO (0.1 μM) [1, 3]: 65.1%; Concentration of FLNA-Binding Compound as Agonist 0.1 μM [1, 4]: 94.4%; Concentration of FLNA-Binding Compound as Agonist 1 μM + BFNA [1, 5]: 55.9%; % DAMGO + BFNA [1, 6]: 127.0%; % DAMGO (1 μM) [1, 7]: 73.1%; Concentration of FLNA-Binding Compound as Agonist 1 μM [1, 8]: 170.4%
CC1CCC(C(C)C)C(OCC(O)CN2CCCC2=O)C1 (stereo not shown) [Compound A0035] | – | – | – | 40.3% | 45.5% | 54.9% | 120.6% | 61.5% | 158.8% | 88.6% | 119.9% | 57.5% | –
CN1CCC2(CC1)NC(=O)CN2Cc1ccccc1 [Compound C0104M] | – | – | – | 51.4% | 54.1% | 55.2% | – | – | – | – | – | – | % DAMGO (0.1 μM) [1, 12]: 99.5%; MOR agonist activity, percent [35S]GTPγS binding at the stated compound concentration [1, 13]: 188.2%; MOR agonist activity, percent [35S]GTPγS binding at the stated compound concentration [1, 14]: 143.8%; % DAMGO + BFNA [1, 15]: 296.5%; % DAMGO (1 μM) [1, 16]: 96.3%; MOR agonist activity, percent [35S]GTPγS binding at the stated compound concentration [1, 17]: 238.9%
COc1c2c(cc3c1C(CC(=O)Cc1ccc(C#N)cc1)[N+](C)(C)CC3)OCO2 (stereo not shown) [Compound B0012] | 39.4% | 46.9% | 51.7% | – | – | – | – | – | – | – | – | – | % DAMGO (0.1 μM) [1, 24]: 97.8%; MOR agonist activity, percent [35S]GTPγS binding at the stated compound concentration [1, 25]: 167.4%; MOR agonist activity, percent [35S]GTPγS binding at the stated compound concentration [1, 26]: 145.1%; % DAMGO + BFNA [1, 27]: 278.5%; % DAMGO (1 μM) [1, 28]: 79.4%; MOR agonist activity, percent [35S]GTPγS binding at the stated compound concentration [1, 29]: 212.0%
COc1ccccc1C(=O)CC1c2c(cc3c(c2OC)OCO3)CC[N+]1(C)C (stereo not shown) [Compound B0025] | 41.7% | 49.4% | 56.6% | – | – | – | – | – | – | – | – | – | % DAMGO (0.1 μM) [1, 24]: 96.3%; MOR agonist activity, percent [35S]GTPγS binding at the stated compound concentration [1, 25]: 159.6%; MOR agonist activity, percent [35S]GTPγS binding at the stated compound concentration [1, 26]: 137.7%; % DAMGO + BFNA [1, 27]: 211.8%; % DAMGO (1 μM) [1, 28]: 86.8%; MOR agonist activity, percent [35S]GTPγS binding at the stated compound concentration [1, 29]: 234.6%
CC1CCC(C(C)C)C(OCC(O)CN2CCOCC2)C1 (stereo not shown) [Compound A0004] | – | – | – | 40% | 43.7% | 47.6% | 97.4% | 55.2% | 144.2% | 86.0% | 130.9% | 55.6% | –
CC1CCC(C(C)C)C(OCC(O)Cn2cccc2)C1 (stereo not shown) [Compound A0038] | 46.4% | 52.3% | 56.6% | – | – | – | 176.7% | 90.1% | 234.5% | 107.0% | 144.8% | 85.0% | –
C=CCN1CC[C@]23c4c5ccc(O)c4O[C@H]2C(=O)CC[C@@]3(O)[C@H]1C5 [Naloxone Control, naloxone, reference compound] | 39.9% | 46.3% | 50.9% | – | – | – | – | – | – | – | – | – | –
O=C1CNC2(CCN(S(=O)(=O)c3ccc(O)cc3)CC2)N1Cc1ccccc1 [Compound C0148M] | – | – | – | 46.2% | 52% | 57% | – | – | – | – | – | – | –
CC(=O)c1ccc(S(=O)(=O)N2CCC3(CC2)NCCO3)cc1 [Compound C0055] | – | – | – | 29% | 34.9% | 39.5% | – | – | – | – | – | – | –
C=CCN1CC[C@]23c4c5ccc(O)c4O[C@H]2C(=O)CC[C@@]3(O)[C@H]1C5 [NLX, naloxone, reference compound] | – | – | – | – | – | – | – | – | – | – | – | – | Inhibition of 10 nM FITC-conjugated NLX binding to biotinylated FLNA pentapeptide (FIG. 28) ([2]; 1 μM): inhibit well

From patent US10363239B2, “Method for inhibiting growth of cancer cells” (Pain Therapeutics, Inc., priority 2013, dated 2019)
